Assay results: patent US20260224574A1, “ANTIFUNGAL COMPOSITIONS AND METHODS OF USE THEREOF” (ARIZONA BOARD OF REGENTS ON BEHALF OF THE UNIVERSITY OF …, priority 2023, published 2026)
pIC50: −log10 of the molar value.

The compounds below were run on Cne H99 strain (assay: cell-based anti-Cryptococcus neoformans growth inhibition dose-response assay (resazurin to resorufin fluorescence)). Conditions: Cne H99, concentration series 0.02-50 μM, 24 hours incubation.
Experimental: For primary screening, a cell-based high-throughput screening (HTS) assay was developed for testing the growth inhibition of Cne H99 strain of fungus. […] After standardizing the assay in 96 well plates, it was optimized in a 384-well plate.
The compound library included known bioactives, commercial libraries, and academic molecules. For HTS, the fungal cells were grown in SD broth overnight and diluted in Sabouraud dextrose (SD) broth to an optical density at 600 nm (OD600) of 0.5. […] From this cell suspension, 20 μL of the cells was added to each well of the 384-well assay plate (black, clear bottom) containing test compounds. Plates with test compounds were prepared by adding 20 μL of RPMI-MOPS medium to each well using a liquid dispenser (Thermo Multidrop Combi), followed by transferring 1 μL of the test compounds to all wells of the 22 columns in the assay plate using a robot. Dimethyl sulfoxide (DMSO) as vehicle control or 0.8 μM AmB as positive control was added manually to the remaining two columns using a multichannel pipet. […] Additionally, the absorbance was also read at 600 nm using the plate reader (EnVision, PerkinElmer).
Concentration series (0.02-50 μM) of test compounds and equalizing volume of DMSO were dispensed, using a liquid handler (D300e, Hewlett-Packard), to the 384-well plates. Following the addition of the Cne cells, the assay plates were incubated for 24 hours, followed by a fluorescence reading of resorufin as explained for single-concentration screening. The IC50 was calculated by graphpad prism.

Structure (SMILES) | pIC50
Clc1ccc(CCNc2ncnc3sccc23)cc1 [compound 1] | 6.46
c1ccc(CN2CCOc3ccccc3CCCCC3(CCNCC3)C2)cc1 [compound 2] | 6.24
COc1ccc(OCc2nnc3sc(-c4ccc5c(c4)OCCO5)nn23)cc1 [compound 3] | 6.22
Clc1cc(Cl)c(OCC#CI)cc1Cl [compound 6] | 5.84
Nc1ccc2ncnc(NCCc3ccc(Oc4ccccc4)cc3)c2c1 [compound 10] | 5.74
O=c1nc(SCc2ccc(F)cc2)c2c(n1Cc1ccccc1)CCC2 [compound 11] | 5.64
CC(C)CCNCC(O)Cn1c2ccc(Br)cc2c2cc(Br)ccc21 (stereo not drawn) [compound 12] | 5.62
O=C(O)c1ccc(-c2ccc3cc(C45CC6CC(CC(C6)C4)C5)c(O)cc3c2)cc1 [compound 13] | 5.61
CCOC(=O)c1sc(NC(=O)c2ccco2)c(SC#N)c1C [compound 22] | 5.51
CCCCCCCCc1ccc(CCC(N)(CO)CO)cc1 [compound 35] | 5.32
COC(=O)c1sc(-c2cccs2)cc1N1C(=O)C=CC1=O [compound 36] | 5.31
Cc1ccc(S(=O)(=O)C=CC#N)cc1 [compound 39] | 5.29
Cc1cc(C)cc(N2C(=O)C=CC2=O)c1 [compound 42] | 5.27
Cc1ccccc1Nc1nc(Nc2ccccc2)c2cnn(C)c2n1 [compound 44] | 5.27
CCC(C)c1ccc(N2C(=O)C=CC2=O)cc1 (stereo not drawn) [compound 45] | 5.26
NC(=O)c1cnc(NCCc2ccc(O)c(Cl)c2)nc1NCc1ccccc1 [compound 52] | 5.20
CCCCOc1ccc(-c2cc3c(N4CCN(CC)CC4)nccn3n2)cc1 [compound 69] | 5.09
COc1ccc(CC2NCC(O)C2OC(C)=O)cc1 (stereo not drawn) [compound 81] | 5.01
CN1c2cc3c(cc2N=C(c2ccc(C(=O)O)cc2)c2ccccc21)C(C)(C)CCC3(C)C [compound 88] | 5.00
Cc1cc(Nc2nc(NC(C)c3ccc(F)cc3)c(C#N)cc2F)n[nH]1 (stereo not drawn) [compound 89] | 4.98
C(=N/n1cnnc1)/c1ccc(N(c2ccccc2)c2ccccc2)cc1 [compound 90] | 4.98

Same assay, conditions: Cryptococcus neoformans, H99STRAIN, Cne H99, concentration series 0.02-50 μM, 24 hours incubation

Structure (SMILES) | pIC50
CC[n+]1c(/C=C/C=C2/N(C)c3ccccc3C2(C)C)sc2ccccc21 [compound 7] | 5.80
OCCCNc1cc(-c2ccnc(Nc3cccc(Cl)c3)n2)ccn1 [compound 8] | 5.78
Cc1ccc(NC(=O)Nc2ncc(-c3ccccc3)n2C)cc1Cl [compound 9] | 5.77
c1cc2c(cc1C1CCCCC1)c1c3n2CCNC3CCC1 (stereo not drawn) [compound 14] | 5.60
Cc1cccc2c1-c1sc(C(=O)NCCCN3CCC(Cc4ccccc4)CC3)cc1CO2 [compound 15] | 5.60
CNC(=O)c1ccccc1Nc1nc(Nc2ccc(N3CCOCC3)cc2OC)ncc1Cl [compound 16] | 5.59
Clc1ccc(C(c2ccc(Cl)cc2)[n+]2ccn(CC(OCc3ccc(Cl)cc3Cl)c3ccc(Cl)cc3Cl)c2)cc1 (stereo not drawn) [compound 17] | 5.58
Cc1ccc(CNc2nc(C)nc3onc(C)c23)cc1 [compound 18] | 5.56
Cc1nc(NCCC2=CCCCC2)c2c(C)noc2n1 [compound 19] | 5.53
Cc1c(Cl)cccc1N1C(=O)C=CC1=O [compound 20] | 5.53
O=c1nc(SCc2ccccc2)c2c(n1Cc1ccccc1)CCC2 [compound 21] | 5.52
CCc1noc2nc(C)nc(NCCC3=CCCCC3)c12 [compound 23] | 5.50
Cc1ccc(Nc2nc3nonc3nc2Nc2ccccc2F)cc1Cl [compound 24] | 5.50
O=C(NNc1ccccc1)c1ccncc1 [compound 25] | 5.51
CCn1c2ccccc2c2cc(N3C(=O)C=CC3=O)ccc21 [compound 26] | 5.50
CCCCc1ccc(N2C(=O)C=CC2=O)cc1 [compound 27] | 5.49
CCCCCCCCCCCCCCCC[N+](C)(C)CCN(Cc1ccc(OC)cc1)c1ncccn1 [compound 28] | 5.47
COc1cccc(-c2cc(F)ccc2[C@H]2Cc3nc(N)nc(C)c3C(=O)N2)n1 [compound 29] | 5.44
CC(C)CCOc1cccc(OCC(=O)Nc2ccncc2)c1 [compound 30] | 5.40
CCc1noc2ncnc(NCCC3=CCCCC3)c12 [compound 31] | 5.39
O=C1C=CC(=O)N1c1ccccc1Br [compound 32] | 5.34

Structure (SMILES) | pIC50
Oc1cccnc1NC(c1ccc(Cl)cc1)c1ccc2cccnc2c1O (stereo not drawn) [compound 33] | 5.33
O=C(Nc1ccc(Br)c(C(F)(F)F)c1)c1cccs1 [compound 38] | 5.30
COC(=O)Nc1nc2cc(SC(C)C)ccc2[nH]1 [compound 40] | 5.29
O=[N+]([O-])/C=C/c1ccc2c(c1)OCO2 [compound 43] | 5.27
COc1ccc(OCc2nnc3sc(-c4ccc(OC)c(OC)c4)nn23)cc1 [compound 47] | 5.25
O=C1C=CC(=O)N1CCc1ccccc1 [compound 48] | 5.25
c1ccc(CCNc2ncnc3ccsc23)cc1 [compound 49] | 5.23
CCCCCCCCCOc1ccc2[nH]cc(CCN)c2c1 [compound 50] | 5.22
OC(CNCc1ccc(-c2ccc(Cl)cc2Cl)o1)c1ccccc1 (stereo not drawn) [compound 51] | 5.22
Cc1noc2ncnc(N3CCC(c4ccccc4)C3)c12 (stereo not drawn) [compound 53] | 5.20
CC(C)(c1ccc(OCC2CO2)cc1)c1ccc(OCC2CO2)cc1 (stereo not drawn) [compound 54] | 5.19
Clc1ccc(-c2ccc(CNCc3ccc4c(c3)OCO4)o2)cc1 [compound 55] | 5.18
CCOC(=O)C1CCN(c2ncnc3scc(C)c23)CC1 [compound 56] | 5.18
COc1cc(Nc2ncc3ccn(-c4cccc(CCC#N)c4)c3n2)cc(OC)c1OC [compound 57] | 5.16
Cc1oc2ncnc(N3CCC(C(=O)NCc4ccc(Cl)cc4)CC3)c2c1C [compound 58] | 5.16
Cc1ccc(Cl)cc1N1CCN(C(=O)C2CCN(Cc3nc(-c4ccc(Cl)cc4)oc3C)CC2)CC1 [compound 59] | 5.16
O=C1C=CC(=O)N1c1ccc(-n2ccc(C(F)(F)F)n2)cc1 [compound 60] | 5.15
Cc1ccc2nc(-c3ccc(N4C(=O)CC(N5CCC(C)CC5)C4=O)cc3)sc2c1 (stereo not drawn) [compound 61] | 5.14
O=c1c2ccccc2oc2cc(O)cc(O)c12 [compound 62] | 5.12
O=C(Nc1ccc(F)c(Cl)c1)c1ccc(Nc2ccnc(-c3ccc(F)cc3)n2)cc1 [compound 63] | 5.12
COc1cc(CN2CCCCCCOc3ccccc3Oc3ccc(Cl)cc3NC(=O)C2)ccc1OCCN(C)C [compound 64] | 5.11

Structure (SMILES) | pIC50
CC(C)(C)c1cc(C=C(C#N)C#N)cc(C(C)(C)C)c1O [compound 65] | 5.10
CCN(CC)CCN1COc2c(cc(Cl)c3cccnc23)C1 [compound 66] | 5.09
O=C1C=CC(=O)N1Cc1ccc(Cl)cc1 [compound 67] | 5.09
Brc1ccc(-c2ccc(CNCc3ccc4c(c3)OCO4)o2)cc1 [compound 68] | 5.09
CSc1cccc(N2C(=O)C=CC2=O)c1 [compound 70] | 5.09
CCN(CC)c1cc(C)c2cc(NC(=O)Nc3ccc(Br)cc3)ccc2n1 [compound 71] | 5.08
Clc1ccc(-c2ccc(CNCc3ccccn3)o2)c(Cl)c1 [compound 72] | 5.07
CC(C)c1ccc2c(c1)CCC1C(C)(CN)CCCC21C (stereo not drawn) [compound 73] | 5.07
O=c1cc(-c2ccccc2)cc(-c2ccccc2)n1O [compound 74] | 5.06
COc1ccc(-c2cc(C(=O)NCCN3CCCCC3)c3cccc(-c4ccc(F)cc4)c3n2)cc1 [compound 75] | 5.06
Cc1ccc(Sc2cccc3nc(N)nc(N)c23)cc1 [compound 76] | 5.06
CC1CCN(c2nc(Cl)nc3ccccc23)CC1 [compound 77] | 5.05
Nc1nc2ccc(Oc3ccccc3)cc2s1 [compound 78] | 5.04
CN(C)CC1COc2ccccc2C1=O (stereo not drawn) [compound 79] | 5.03
O=C1C=CC(=O)N1c1ccccc1Oc1ccc(Cl)cc1Cl [compound 80] | 5.02
OC(CNCc1ccc(-c2cc(Cl)ccc2Cl)o1)c1ccccc1 (stereo not drawn) [compound 82] | 5.01
Cc1nn2c(NCCN(C)C)cc(C(C)(C)C)nc2c1-c1ccc(F)cc1 [compound 83] | 5.00
Brc1ccc(-c2ccc(CNCc3ccco3)o2)cc1 [compound 85] | 5.00
Cc1nc(NCc2ccccc2)c2c(C)noc2n1 [compound 86] | 5.00
CN1CCC(C(=O)N2CCC3(CCCCc4ccccc4OCCN(Cc4ccccc4)C3)CC2)CC1 [compound 87] | 5.00
CCc1ccc(-c2nc3ccccn3c2CNCc2cccc(C)c2)cc1 [compound 91] | 4.97
